# Results taken from article PMC8920929 (The Journal of Biological Chemistry, 2022).
# Changes are numbered by the printed parent chain.
# Legend:
# TRPV3 [1] = conditions: ref [30], cited from earlier work; for TRPV3 currents induced: in comparison with carvacrol
# TRPV3 [2] = conditions: ref [38]; cited from earlier work
# TRPV3-L508A = biological target: T1, TRPV3-L508A (Homo sapiens, UniProt Q8NET8, L508A); assay: Whole-cell and single-channel recordings of the TRPV3-L508A mutant; format: cell-based; conditions: carvacrol 0.3-3.0 mM or 50 μM 2-APB
# T1 sequence (Q8NET8 1-790 L508A): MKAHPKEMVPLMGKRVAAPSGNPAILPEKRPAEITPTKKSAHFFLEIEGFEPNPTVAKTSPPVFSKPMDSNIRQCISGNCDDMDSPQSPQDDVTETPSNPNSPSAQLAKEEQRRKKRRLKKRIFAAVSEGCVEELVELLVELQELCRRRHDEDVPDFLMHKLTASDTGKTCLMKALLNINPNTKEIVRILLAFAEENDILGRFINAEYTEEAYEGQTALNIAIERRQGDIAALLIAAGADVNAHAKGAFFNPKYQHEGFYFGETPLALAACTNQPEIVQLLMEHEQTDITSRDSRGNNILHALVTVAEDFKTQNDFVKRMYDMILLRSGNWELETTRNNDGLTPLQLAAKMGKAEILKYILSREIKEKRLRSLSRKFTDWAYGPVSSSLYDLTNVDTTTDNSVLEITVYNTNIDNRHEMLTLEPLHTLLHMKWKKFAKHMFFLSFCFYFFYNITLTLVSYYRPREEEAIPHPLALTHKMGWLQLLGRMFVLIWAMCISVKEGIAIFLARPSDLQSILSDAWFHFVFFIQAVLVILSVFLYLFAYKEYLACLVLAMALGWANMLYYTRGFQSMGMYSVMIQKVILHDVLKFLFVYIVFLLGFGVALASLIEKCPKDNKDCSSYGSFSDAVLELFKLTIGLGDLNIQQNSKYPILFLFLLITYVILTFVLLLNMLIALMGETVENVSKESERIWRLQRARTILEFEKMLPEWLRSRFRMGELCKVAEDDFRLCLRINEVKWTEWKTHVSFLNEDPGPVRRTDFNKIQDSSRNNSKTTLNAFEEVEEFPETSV
# human TRPV3 = biological target: T2, human TRPV3 (Homo sapiens, UniProt Q8NET8); assay: Inside-out single channel recordings of TRPV3; format: biochemical
# T2 sequence (Q8NET8 1-790): T1 sequence (Q8NET8 1-790 L508A) with A508L
# TRPV3-I505A = biological target: T3, TRPV3-I505A (Homo sapiens, UniProt Q8NET8, I505A); assay: Whole-cell and single-channel recordings of the TRPV3-I505A mutant; format: cell-based; conditions: carvacrol 0.3-3.0 mM or 50 μM 2-APB
# T3 sequence (Q8NET8 1-790 I505A): T1 sequence (Q8NET8 1-790 L508A) with I505A, A508L
# TRPV3-L508F = biological target: T4, TRPV3-L508F (Homo sapiens, UniProt Q8NET8, L508F); assay: Whole-cell and single-channel recordings of the TRPV3-L508F mutant; format: cell-based; conditions: carvacrol 0.3-3.0 mM or 50 μM 2-APB
# T4 sequence (Q8NET8 1-790 L508F): T1 sequence (Q8NET8 1-790 L508A) with A508F
# TRPV3-F524A = TRPV3-F524A (Homo sapiens, UniProt Q8NET8, F524A); conditions: 50 μM 2-APB; the mutant also lost surface expression
# TRPV3-F524A, sequence (Q8NET8 whole entry F524A): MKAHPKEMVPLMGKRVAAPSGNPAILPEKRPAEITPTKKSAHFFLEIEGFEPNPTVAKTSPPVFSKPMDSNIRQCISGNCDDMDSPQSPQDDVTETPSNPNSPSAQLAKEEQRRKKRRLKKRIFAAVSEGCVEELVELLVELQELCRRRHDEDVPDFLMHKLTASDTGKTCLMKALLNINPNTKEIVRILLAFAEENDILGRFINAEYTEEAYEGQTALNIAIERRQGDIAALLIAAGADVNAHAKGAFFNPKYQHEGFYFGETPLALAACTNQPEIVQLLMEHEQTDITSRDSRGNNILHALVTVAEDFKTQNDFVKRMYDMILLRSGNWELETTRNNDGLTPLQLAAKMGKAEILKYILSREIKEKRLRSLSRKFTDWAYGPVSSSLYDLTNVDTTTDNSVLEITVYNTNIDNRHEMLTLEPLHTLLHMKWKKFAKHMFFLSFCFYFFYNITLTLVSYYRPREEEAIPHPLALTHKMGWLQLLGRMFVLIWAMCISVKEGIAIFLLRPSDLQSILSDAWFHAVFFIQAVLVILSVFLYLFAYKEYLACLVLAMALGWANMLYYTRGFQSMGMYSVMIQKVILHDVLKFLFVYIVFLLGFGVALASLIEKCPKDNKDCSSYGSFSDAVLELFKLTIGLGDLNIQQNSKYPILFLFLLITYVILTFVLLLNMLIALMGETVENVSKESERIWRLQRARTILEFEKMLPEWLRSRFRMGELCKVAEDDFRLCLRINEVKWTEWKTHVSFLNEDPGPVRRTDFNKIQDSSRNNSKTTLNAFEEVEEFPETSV
# keratinocytes = conditions: ref [35]; cited from earlier work
# mice = conditions: ref [35]; cited from earlier work
# [3] = +80 mV, carvacrol 300 μM or 2-APB 50 μM alone
# [4] = FB 50 μM in the presence of 50 μM 2-APB, +80 mV
# [5] = FB 50 μM in the presence of 300 μM carvacrol, +80 mV
compound,measurement,setting,value
Cc1ccc(C(C)C)cc1 [p-Cymene],TRPV3 currents induced,TRPV3 [1],small or negligible
CC12CCC(CC1=O)C2(C)C (stereo not drawn) [camphor],EC50,"TRPV3 [1]; read-out: EC50, activation of TRPV3, [32]",~6 mM
"NCCOB(c1ccccc1)c1ccccc1 [2-APB, 2-aminoethyl diphenylborinate]","unitary conductance, 2-APB in the absence of dyclonine",TRPV3 [2],163.6 ± 6.4 pS
same,"unitary conductance, 2-APB in the presence of TRPV3 inhibitor dyclonine",TRPV3 [2],179.2 ± 5.5 pS
same,activation of TRPV3 L508A mutant channel,TRPV3-L508A,still able to activate the mutant channel
same,single-channel open frequency (Freq),human TRPV3; [3],65.48 ± 12.31 Hz
same,single-channel open probability (Po),human TRPV3; [3],0.77 ± 0.07
same,unitary conductance of TRPV3 single channels,"human TRPV3; inside-out patches, -80 mV to +80 mV, carvacrol 300 μM, 2-APB 50 μM, n = 4",173.2 ± 5.3 pS
same,activation of TRPV3 I505A mutant channel,TRPV3-I505A,intact activation
same,activation of TRPV3 L508F mutant channel,TRPV3-L508F,but not 2-APB
same,sensitivity of TRPV3 F524A mutant channel,TRPV3-F524A,reduced sensitivity
forsythoside B [FB],"Po after addition of inhibitor, 2-APB-activated channels",human TRPV3; [4],0.12 ± 0.08
same,"open Freq after addition of inhibitor, 2-APB-activated channels",human TRPV3; [4],20.07 ± 1.77 Hz
same,"Po after addition of inhibitor, carvacrol-activated channels",human TRPV3; [5],0.12 ± 0.03
same,"open Freq after addition of inhibitor, carvacrol-activated channels",human TRPV3; [5],21.78 ± 2.59 Hz
same,effect on carvacrol-induced cytotoxicity of keratinocytes,keratinocytes,attenuates
same,effect on carvacrol-induced pruritus,mice,attenuates pruritus
Cc1ccc(C)c(O)c1 [p-Xylenol],TRPV3 currents induced,TRPV3 [1],small or negligible
